{
  "source": "patent US9997714B2",
  "about": "“Hole transport material” (MERCK PATENT GMBH, priority 2013, dated 2018)",
  "key": {"[1]": {"test": "Hole mobility by impedance spectroscopy", "assay_type": "physicochemical", "conditions": "for Hole mobility: ITO/PEDOT-PSS/HTM(400 nm)/Au cell, dc field intensity 10^5V/cm, four cells", "protocol": "The hole mobility of the inventive compound 2,2′,7,7′-tetrakis-(N,N′-di-4-methoxy-3-methylphenylamine)-9,9′-spirobifluorene is measured and the value is compared with those of the reference materials according to example 2 and example 3.\nThe structure of the measurement cell is ITO(200 nm)/PEDOT-PSS(150 nm)/HTM(400 nm)/Au(60 nm).\nThe measurement is carried out using four cells for each HTM by means of impedance spectroscopy. (Ref. 1. H. Martens et al., Phys. Rev. B, 60, R8489 (1999), Ref. 2. S. Ishihara, et al., Proc. of IDW'09, p 1085 (2009)). In the impedance measurement, a direct current (dc) voltage is applied to the test cell in order to inject holes from an anode. The hole mobility is determined under the dc field intensity of 10^5V/cm."}, "[2]": {"test": "Qualitative solubility of the HTM in chlorobenzene (spin-coat solution)", "assay_type": "physicochemical", "conditions": "for solubility compared with reference materials: in words; for solubility: organic solvent or mixture", "protocol": "A solution for a spin-coat is prepared in a N2 glove box as follows: at first, 20 mg of a hole transport material is dissolved in 95 μL of chlorobenzene. The hole transport material needs to be dissolved completely. A mother solution of lithium bis(trifluorosulfonyl)imide (LiTFSI) and tert-butylpyridine (TBP) is prepared separately at room temperature and is added to the hole transporter solution to set the molar ratio to [hole transporter]:[LiTFSI]:[TBP]=10:1:10 at room temperature. Thus the final volume of the solution is 100 μL.\nThe solubility of the HTMs according to examples 1, 2 and 3 are evaluated qualitatively:\n1 means: 20 mg of HTM is completely dissolved without heating\n2 means: HTM is dissolved after heating to 80° C.\n3 means: HTM is dissolved after adding salt and base solution and heating to 80° C.\n4 means: HTM is dissolved after adding another 50 μL of chlorobenzene and heat to 80° C. (final folume 150 μl)."}, "[3]": {"conditions": "order of magnitude, background; cited from earlier work"}, "[4]": {"conditions": "20 mg of HTM in 95 μL chlorobenzene completely dissolved without heating, read-out: solubility grade 1"}},
  "note": "Like-named read-outs stand apart in the source and are kept apart here.",
  "data": [
    {"smiles": "COc1ccc(N(c2ccc(OC)c(C)c2)c2ccc3c(c2)C2(c4cc(N(c5ccc(OC)c(C)c5)c5ccc(OC)c(C)c5)ccc4-3)c3cc(N(c4ccc(OC)c(C)c4)c4ccc(OC)c(C)c4)ccc3-c3ccc(N(c4ccc(OC)c(C)c4)c4ccc(OC)c(C)c4)cc32)cc1C", "values": [
      {"measurement": "hole mobility compared with reference example 3", "setting": "[1]; in words", "value": "more than one order of magnitude larger"},
      {"measurement": "hole mobility compared with spiro-OMeTAD", "setting": "[1]; in words", "value": "larger than the hole mobility of spiro-OMeTAD"}
    ]},
    {"smiles": "COc1ccc(N(c2ccc(OC)c(C)c2)c2ccc3c(c2)C2(c4cc(N(c5ccc(OC)c(C)c5)c5ccc(OC)c(C)c5)ccc4-3)c3cc(N(c4ccc(OC)c(C)c4)c4ccc(OC)c(C)c4)ccc3-c3ccc(N(c4ccc(OC)c(C)c4)c4ccc(OC)c(C)c4)cc32)cc1C", "note": "[Example 1, 2,2′,7,7′-tetrakis-(N,N′-di-4-methoxy-3-methylphenylamine)-9,9′-spirobifluorene]", "values": [
      {"measurement": "solubility grade 1", "setting": "[2]; 20 mg of HTM in 95 μL chlorobenzene completely dissolved without heating", "value": "✓"},
      {"measurement": "solubility compared with reference materials", "setting": "[2]; listed as compound of formula (I)", "value": "better solubility than spiro-OMeTAD"},
      {"measurement": "solubility compared with reference materials", "setting": "[2]; listed as hole transport material according to the invention", "value": "better solubility than the reference materials"},
      {"measurement": "Hole mobility", "setting": "[1]", "value": "1.29E−04", "unit": "cm^2/Vs"}
    ]},
    {"smiles": "COc1ccc(N(c2ccc(OC)cc2)c2ccc3c(c2)C2(c4cc(N(c5ccc(OC)cc5)c5ccc(OC)cc5)ccc4-3)c3cc(N(c4ccc(OC)cc4)c4ccc(OC)cc4)ccc3-c3ccc(N(c4ccc(OC)cc4)c4ccc(OC)cc4)cc32)cc1", "note": "[Example 2, 2,2′,7,7′-tetrakis-(N,N′-di-4-methoxyphenylamine)-9,9′-spirobifluorene]", "values": [
      {"measurement": "solubility grade 2", "setting": "[2]; HTM dissolved after heating to 80° C.", "value": "✓"},
      {"measurement": "solubility", "setting": "[2]; [4]", "value": "< 210", "unit": "mg/mL"},
      {"measurement": "Hole mobility", "setting": "[1]", "value": "1.08E−04", "unit": "cm^2/Vs"},
      {"measurement": "charge carrier mobility", "setting": "[3]", "value": "~10^−4 cm^2/Vs"}
    ]},
    {"smiles": "COc1c(C)cc(N(c2cc(C)c(OC)c(C)c2)c2ccc3c(c2)C2(c4cc(N(c5cc(C)c(OC)c(C)c5)c5cc(C)c(OC)c(C)c5)ccc4-3)c3cc(N(c4cc(C)c(OC)c(C)c4)c4cc(C)c(OC)c(C)c4)ccc3-c3ccc(N(c4cc(C)c(OC)c(C)c4)c4cc(C)c(OC)c(C)c4)cc32)cc1C", "note": "[Example 3]", "values": [
      {"measurement": "solubility grade 4", "setting": "[2]; HTM dissolved after adding another 50 μL of chlorobenzene and heat to 80° C., final volume 150 μl", "value": "✓"},
      {"measurement": "solubility", "setting": "[2]; chlorobenzene with LiTFSI and tert-butylpyridine solution, HTM dissolved after adding salt and base solution and heating to 80° C., read-out: solubility grade 3", "value": "< 210", "unit": "mg/mL"},
      {"measurement": "solubility", "setting": "[2]; chlorobenzene, HTM dissolved after heating to 80° C., read-out: solubility grade 2", "value": "< 210", "unit": "mg/mL"},
      {"measurement": "solubility", "setting": "[2]; [4]", "value": "< 210", "unit": "mg/mL"},
      {"measurement": "Hole mobility", "setting": "[1]", "value": "9.34E−06", "unit": "cm^2/Vs"}
    ]}
  ]
}
